Where no end group is shown, it is not given here. [ ]: non-standard residue; d: D form.
Legend:
[1] = tested on: human Bowes melanoma cells; assay: Cellular penetration of biotin-labelled peptide; format: cell-based
Procedure: The medium containing serum was exchanged for a serum-free medium and water solution of the peptide was added directly into the medium to reach the concentration of 10 μM. A negative control was always used, because living cells all the time have some biotin inside. To control cells pure water instead peptide solution were added, and further handled alike all other. The cells were incubated for 1 h at 37° C. or 4° C. in 5% CO2 enriched air. The cells were washed three times with PBS, fixed and permeabilised with methanol for 10 min at −20° C., washed again with PBS and Incubated for 1 h in a 5% (w/v) solution of fat-free milk in PBS in order to decrease non-specific binding. The peptides were visualised by staining with 0.1 μM streptavidin-FITC in the same solution for 1 hour at room temperature. The cell nuclei were visualised by staining with DNA with Hoechst 33258 (0.5 μg/ml) for 5 min, thereafter the coverslips were washed 3 times with PBS and mounted in 20% glycerol in PBS. The images were obtained by Zeiss Axioplan 2 microscope (Carl Zeiss Inc., Germany).

[2] = tested on: porcine left anterior descending coronary artery; assay: Blood vessel contraction measurement
Procedure: Dissected porcine hearts (260-390 g) were transported from local slaughterhouse to the laboratory in ice-cold Krebs-Henseleit solution (119 mM NaCl, 23.8 mM NaHCO3, 3 mM KCl, 1.14 mM NaH2PO4, 1.63 mM CaCl2, and 16.5 mM glucose). Left anterior descending coronary artery and great cardiac vein were isolated. Part of each blood vessel was used immediately after Isolation for contraction assays while part of it was kept frozen in liquid nitrogen for the membrane preparation. In some experiments blood vessels in which endothelium was mechanically removed were used. The same procedure was used also for the preparation of human umbilical blood vessels; umbilical cords were obtained from Obstetric Clinic of Ljubljana Clinical Center, Slovenia.
The measurements were performed as already described (20). Rings (5 mm wide) of blood vessels were cut and mounted into 10 ml tissue chamber filled with Krebs-Henseleit solution (37° C.; pH=7.4) which was oxygenated with the mixture of ^95% O2 and 5% CO2. Initial tension of 50 mN was applied and after equilibration 30 mM KCl was added to obtain stable Isometric contraction. The presence of endothelium was verified with substance P. After washing out of KCl and substance P and after the equilibration of the system was restored, test peptide was added into the tissue chamber and blood vessel contraction was recorded.

[3] = tested on: N2A mouse neuroblastoma cells; assay: Cellular internalisation assay of fluorescein-labelled APP and PS peptides; format: cell-based; conditions: for cellular internalisation / cellular localisation: 10 μM, 37°; for cellular internalisation: 60 min
Procedure: Mouse neuroblastoma cells, N2A, were cultivated in Dulbecco's minimal essential medium with Glutamax-I, supplemented with 10% (v/v) fetal bovine serum, penicillin (100 U/ml) and streptomycin (100 μg/ml).
The cells used for Internalisation were seeded out on round glass coverslips in 24well plates. One day post seeding, the cells were semi confluent, and the medium was changed to serum-free medium. The fluorescein-labelled peptides were added, with a final concentration of 10 μM. After 60 min of incubation at 37°, the cells were washed 3 times with 1 ml of Hepes-Krebbs-Ringer-(HKR) buffer and fixed with 3% paraformaldehyde solution in phosphate-buffered saline solution (PBS) for 10 minutes. The cells were then washed 3 times with 1 ml of HKR-buffer, and the coverslips were mounted and sealed for microscopy studies.
The cell type used for the internalisation assays with the fluorescein'tagged peptides was N2A mouse neuroblastoma cells. This cell-line is commonly used in association with Alzheimer's disease studies, and serves as a good model cell-line for these internalisation assays where peptides derived from proteins involved in Alzheimer's disease were examined. These Internalisation assays were performed at 37° C., therefore the internalisation by endocytosis cannot be excluded.

pancreatic islets = assay: Insulin release from isolated pancreatic islets; format: cell-based, rat
Procedure: Effects of the peptides on insulin secretion were assessed in pancreatic islets from male Wistar rats weighing 200-250 g. Islets were isolated aseptically by colagenase digestion, and then cultured overnight at 37° C. in RPMI 1640 culture medium supplemented with 10% heat-inactivated fetal calf serum. After culturing, analysis of insulin secretion was performed by incubation at 37° C. for 1 h in batches of 3 islets, each in 300 μl of Krebs-Ringer bicarbonate buffer with 10 mM Hepes and 2 mg/ml bovine serum albumin, pH 7.4. The incubation medium contained either 3.3 or 16.7 mM glucose, with or without peptide. In one experimental series, batches of 5×10^5 Rin m5F cells were incubated under similar conditions, except that glucose was omitted from the medium. Aliquots of the incubation medium were taken for radioimmunoassay of Insulin. Insulin secretion is expressed as IU insulin/islet/h and IU insulin/5×10^5 cells/h, respectively. Statistical significance was evaluated with the Student's t-test with p<0.05 regarded as significant

Bowes cells = assay: Peptide uptake in attached Bowes cells, fluorescence in cell lysate; format: cell-based, human; conditions: Fluoresceinyl peptide, 5 μM, 30 min, 37° C.
Procedure: Cells were detached with trypsin (Invitrogen, Sweden), dissolved in culture media and centrifuged (1000×g for 10 min at RT). The cells were resuspended, counted and aliqoted in HKR on Ice, 300 000 cells/tube. Abz-labelled peptide was incubated for 15 and 30 min together with the cells in suspension, on a shaking 37° C. water bath. To stop the uptake or outflow, trypsin solution was added for 3 min. The cells were spun down at 1000×g for 10 min at 4° C. The pellets were resuspended in HKR for fluorescence detection, or for the outflow samples, incubated again with peptide-free HKR. Fluorescence was read at 320/420 nm on a Spectramax Gemini XS (Molecular Devices, Calif.). The intracellular concentrations were calculated from a standard curve of Abz-labelled peptides. […] Additionally, a varianty of the same assay was applied: the cells were seeded in a 24well plate at a density of 100 000 cells/well, the day before. Cells are incubated at 5 μM peptide concentration for 30 min at 37° C. Trypsin treated, washed and lysed in hydrochloric acid. The fluorescence was measured as described for the suspension assay.
Human melanoma cells Bowes, were cultured in MEM using standard cell culturing techniques, and seeded at density of 100 000 cells/well in 24 well-plates the day before experiments were conducted.

N2A cells = format: cell-based, mouse
[4] = In vivo effect of GOP on insulin release and blood glucose level; parameters: species or system Wistar rats
Procedure: Healthy male Wistar rats, weighing approximately 250 g, were fasted over-night. After an initial blood sample obtained by incision of the distal tail vein (0 min), GOP (M528, 100 nmol/kg; n=4) was injected intraperitoneally, followed by another i.p. injection of glucose (1 g/kg). Control rats (n=4) were injected with saline and glucose. Additional blood samples were taken from the tail vein after 10 and 30 min. Blood glucose levels were determined by a glucose oxidase method and plasma insulin levels by radioimmunoassay.

LoVo cells = assay: Internalisation of biotinylated selCPPs, fluorescence microscopy; format: cell-based, human
Procedure: One aspect of the present invention thus comprises a method for screening the cellular uptake of a broad variety of CPPs in vitro, wherein cells are grown on glass cover slips to suitable, such as 50%, density, whereupon the media is changed to serum free and a blotinylated peptide solution is added. The cells are then incubated, washed, fixed and the peptides are visualised by staining with, e.g. avidin-FITC, or streptavidin-TRITC, and the cell nuclei are counterstained, e.g. with Hoechst. Images are preferably obtained with a fluorescence microscope and evaluated.
FIG. 5. Example of inactivated selCPP. Internalisation of YTA-2 (A) compared to YTA-2 ps (B) In LoVo cells, both biotynilated peptides detected by TRITC-avidin at 37° C.
The cells were grown on round glass cover slips (12 mm, GTF, Sweden) in a 24-well plate to approximately 50% confluence. The media was changed to serum free and the biotinylated peptide solutions were added. The cells were incubated for 30 min at 37 or 4° C. The cells were washed twice with PBS, fixed with 4% paraformaldehyde solution 15 min at room temperature (dark) and then permeabilised in 30 mM HEPES buffer containing 0.5% w/v Triton X-100, 3 min on Ice. Sites for unspecific binding were blocked In PBS containing 3% (w/v) bovine serum albumin, overnight at 4° C. The peptides were visualised by staining with avidin-FrTC or streptavidin-TRITC (Molecular Probes, the Netherlands). The cell nuclei were stained with Hoechst 33258 (0.5 μg/ml) for 5 min, after which the cover slips were washed 3 times with PBS and mounted in 25% glycerol in PBS. The images were obtained with a Leica DM IRE2 fluorescence microscope (Leica Microsystem., Sweden) and processed in PhotoShop 6.0 software (Adobe Systems Inc., CA) (See e.g. FIG. 38-40).

IVIAKLKANLMCKTCRLAK-amide (IVIAKLKANLMCKTCRLAK-NH2; cysteine pairing not given here) [Peptide M569]
cellular penetration ([1]; 37° C. and 4° C.): temperature independent penetration
cellular localisation ([1]; Bowes cells, 37° C.): both cytosolic and plasma membrane localisation

COc1ccc2c(c1)CC[C@@H]1[C@@H]2CC[C@]2(C)[C@@H](NCCCCCCN3C(=O)C=CC3=O)CC[C@@H]12 [Peptide U73122]
effect on tonus of the artery ([2]; 30 μM): did not affect tonus
effect on M511-induced contraction after posterior administration ([2]; 30 μM, 16 μM M511): did not modify blood vessel contraction
decrease of the effect of M511 ([2]; 30 μM, added 30 minutes prior to 16 μM M511): more than 50%

VVLYKYRCYKVI [presenilin-1 (151-162)]
cellular internalisation [3]: Identical increase in fluorescence

all-D-(IVIAKLKA) amide ([dI][dV][dI][dA][dK][dL][dK][dA]-NH2; N-terminus assumed; SMILES CC[C@@H](C)[C@@H](N)C(=O)N[C@@H](C(=O)N[C@@H](C(=O)N[C@H](C)C(=O)N[C@H](CCCCN)C(=O)N[C@H](CC(C)C)C(=O)N[C@H](CCCCN)C(=O)N[C@H](C)C(N)=O)[C@H](C)CC)C(C)C) [GOP6]
Insulin release at 16.7 mM glucose (pancreatic islets; 10 μM peptide): inh−
Insulin release at 3.3 mM glucose (pancreatic islets; 100 μM peptide): stim+
Insulin release at 16.7 mM glucose (pancreatic islets; 100 μM peptide): no

IAIAKLKA amide (IAIAKLKA-NH2) [GOP4]
Insulin release at 16.7 mM glucose (pancreatic islets; 10 μM peptide): inh−−
Insulin release at 3.3 mM glucose (pancreatic islets; 100 μM peptide): inh−
Insulin release at 16.7 mM glucose (pancreatic islets; 100 μM peptide): inh−

VATKSVSVFYTRK [presenilin-1 (97-109) deletion analogue]
cellular localisation [3]: mostly localised in the cytosole
cellular internalisation [3]: showed cell-penetrating abilities

IVIAKLAA amide (IVIAKLAA-NH2) [GOP5]
Insulin release at 16.7 mM glucose (pancreatic islets; 10 μM peptide): inh−
Insulin release at 3.3 mM glucose (pancreatic islets; 100 μM peptide): no
Insulin release at 16.7 mM glucose (pancreatic islets; 100 μM peptide): no

KKAAQIRSQVMTHLRVI [APP (521-536)]
cellular localisation [3]: both in the nucleus and the membrane
cellular internalisation [3]: has cell-penetrating abilities

LRSWVISRSIRKAA [LRSW-1]
% of added fluorescence in cell lysate (Bowes cells): 1.4%

MANLGYWLLALFVTMWTDVGLCKKRPKP [mouse PrPC(1-28)]
cargo delivery (N2A cells): ability to carry a cargo avidin into cells
cell-penetrating activity (N2A cells): is indeed a CPP
cellular localization (N2A cells): perinuclear localization

IATVIFITLVMLKKK [APP (712-726) V717F mutant]
aggregation on addition to the 24-well plate [3]: formed aggregates
cellular internalisation [3]: do not reveal any no uptake

IVIAKLRA amide (IVIAKLRA-NH2) [GOP3]
Insulin release at 16.7 mM glucose (pancreatic islets; 10 μM peptide): stim+
Insulin release at 3.3 mM glucose (pancreatic islets; 100 μM peptide): stim++
Insulin release at 16.7 mM glucose (pancreatic islets; 100 μM peptide): stim++

IATVIVITLVMLKKK [APP (712-726) WT]
aggregation on addition to the 24-well plate [3]: formed aggregates
cellular internalisation [3]: do not reveal any no uptake

Sar^1-Thr^8-angiotensin II
effect on contraction induced by M511 ([2]; 45 μM antagonist): unable to affect
effect on contraction induced by angiotensin II ([2]; 45 μM antagonist): able to revert

angiotensin: angiotensin II, AT1 receptor agonist
contraction effect compared with 30 mM KCl ([2]; 1 μM): almost the same as the effect of 30 mM KCl

Transportan [reference compound]
% of added fluorescence in cell lysate (Bowes cells): 10.5%

LRSWRVIIRNGQR [LRSW-3]
% of added fluorescence in cell lysate (Bowes cells): 1.9%

IVVSKLKA amide (IVVSKLKA-NH2) [GOP16]
Insulin release at 16.7 mM glucose (pancreatic islets; 10 μM peptide): no
Insulin release at 3.3 mM glucose (pancreatic islets; 100 μM peptide): no
Insulin release at 16.7 mM glucose (pancreatic islets; 100 μM peptide): no

TP10 [reference compound]
% of added fluorescence in cell lysate (Bowes cells): 1.8%

IVIAKLKA amide (IVIAKLKA-NH2) [GOP]
stimulation of insulin release (pancreatic islets; 10 μM GOP, 3.3 mM glucose, p<0.001): 5 fold
Insulin release at 16.7 mM glucose (pancreatic islets; 10 μM peptide): stim+
Insulin release at 3.3 mM glucose (pancreatic islets; 100 μM peptide): no
Insulin release at 16.7 mM glucose (pancreatic islets; 100 μM peptide): stim++
stimulation of insulin release (pancreatic islets; 1 and 10 FM GOP, 16.7 mM glucose): 4 fold
plasma insulin ([4]; 100 nmol/kg i.p. + glucose 1 g/kg, after 10 min, vs control rats p<0.05): increased significantly
blood glucose levels ([4]; 100 nmol/kg i.p. + glucose 1 g/kg, at 10 min, vs control rats p<0.02): significantly lower
insulin and glucose levels vs control rats ([4]; after 30 min): no differences

IAIAKLAA amide (IAIAKLAA-NH2) [GOP11]
Insulin release at 16.7 mM glucose (pancreatic islets; 10 μM peptide): inh−
Insulin release at 3.3 mM glucose (pancreatic islets; 100 μM peptide): inh−
Insulin release at 16.7 mM glucose (pancreatic islets; 100 μM peptide): inh−−

SGESLAY-YTAIAWVKAFIRKLRK (SGESLAYYTAIAWVKAFIRKLRK) [YTA-2ps]
% of added fluorescence in cell lysate (Bowes cells): 3.5%
Comment (staining/localisation) (LoVo cells): bind the plasma
